{"source": "paper PMC10584170", "about": "“Machine learning-based phenotypic imaging to characterise the targetable biology of Plasmodium falciparum male gametocytes for the development of transmission-blocking antimalarials” (PLOS Pathogens, 2023)", "key": {"[1]": {"system": "P. falciparum female gametocytes", "assay": "P. falciparum Dual Gamete Formation Assay (PfDGFA), female readout (Pfs25-positive female gametes)", "assay_type": "cell-based, Plasmodium falciparum NF54", "conditions": "for Selectivity ratio F: HepG2 Tox50 versus female IC50; for Average inhibition female (%) / % inhibition female (individual replicates) R1 / % inhibition female (individual replicates) R3 / % inhibition female (individual replicates) R4 / inhibition at 2 µM: 24h preincubation with gametocytes; for IC50: PfDGFA, 24 h incubation with gametocytes before induction, female gamete readout, read-out: Female IC50; for HitlevelF: number of replicates with >50% inhibition in the female readout", "how_it_was_run": "(§1)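 Day-14 NF54 gametocytes were incubated with compound for 24 h at 37°C under 1% O2/3% CO2/96% N2. Gametogenesis was triggered with ookinete medium (0.1 μM xanthurenic acid) plus Cy3-anti-Pfs25, and exflagellation was imaged by brightfield after cooling to 4°C then 28°C. Females were imaged by Pfs25 fluorescence 24 h later at 28°C.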"}, "[2]": {"system": "P. falciparum male gametocytes", "assay": "P. falciparum Dual Gamete Formation Assay (PfDGFA), male readout (exflagellation)", "assay_type": "cell-based, Plasmodium falciparum NF54", "conditions": "for Selectivity Ratio M: HepG2 Tox50 versus male IC50; for Average inhibition male (%) / % inhibition male (individual replicates) R1 / % inhibition male (individual replicates) R3 / % inhibition male (individual replicates) R4 / inhibition at 2 µM: 24h preincubation with gametocytes; for IC50: PfDGFA, 24 h incubation with gametocytes before induction, exflagellation readout, read-out: Male IC50; for HitlevelM: number of replicates with >50% inhibition in the male readout", "how_it_was_run": "as §1"}, "HepG2 cells": {"system": "HepG2 cells", "assay": "HepG2 cytotoxicity counter-screen", "conditions": "cytotoxic activity against HepG2 cells"}, "[3]": {"conditions": "PfDGFA at 2µM, average of replicates"}}, "note": "Read-outs that look alike come from different tables or passages of the source."}
{"smiles": "CC(Cc1ccc(NC(=O)c2ccc(CNCCCCc3ccccc3)cc2)cc1)NCCc1cccc(Cl)c1.Cl", "note": "(stereo not shown) [TCMDC-139866]", "values": [{"measurement": "Selectivity ratio F", "setting": "[1]", "value": 1.02}, {"measurement": "Average inhibition female (%)", "setting": "[1]; [3]", "value": 35.2, "unit": "%"}, {"measurement": "% inhibition female (individual replicates) R1", "setting": "[1]; PfDGFA at 2µM, replicate R1", "value": 34.1, "unit": "%"}, {"measurement": "% inhibition female (individual replicates) R3", "setting": "[1]; PfDGFA at 2µM, replicate R3", "value": 6.7, "unit": "%"}, {"measurement": "% inhibition female (individual replicates) R4", "setting": "[1]; PfDGFA at 2µM, replicate R4", "value": 45.1, "unit": "%"}, {"measurement": "IC50", "setting": "[1]", "value": 3730, "unit": "nM"}, {"measurement": "HitlevelF", "setting": "[1]; 2µM", "value": 1}, {"measurement": "Selectivity Ratio M", "setting": "[2]", "value": 2.02}, {"measurement": "Average inhibition male (%)", "setting": "[2]; [3]", "value": 80.8, "unit": "%"}, {"measurement": "% inhibition male (individual replicates) R1", "setting": "[2]; PfDGFA at 2µM, replicate R1", "value": 85.9, "unit": "%"}, {"measurement": "% inhibition male (individual replicates) R3", "setting": "[2]; PfDGFA at 2µM, replicate R3", "value": 43.9, "unit": "%"}, {"measurement": "% inhibition male (individual replicates) R4", "setting": "[2]; PfDGFA at 2µM, replicate R4", "value": 97.6, "unit": "%"}, {"measurement": "IC50", "setting": "[2]", "value": 1880, "unit": "nM"}, {"measurement": "HitlevelM", "setting": "[2]; 2µM", "value": 3}, {"measurement": "Tox50", "setting": "HepG2 cells", "value": 3.81, "unit": "µM"}]}
{"smiles": "CC(Cc1ccc(OCCCCOc2ccccc2)cc1)NCCC1CCCN1C", "note": "(stereo not shown) [TCMDC-140017]", "values": [{"measurement": "Average inhibition female (%)", "setting": "[1]; 2µM, average of replicates", "value": 62.2, "unit": "%"}, {"measurement": "% inhibition female (individual replicates) R1", "setting": "[1]; 2µM, replicate R1", "value": 37.3, "unit": "%"}, {"measurement": "% inhibition female (individual replicates) R3", "setting": "[1]; 2µM, replicate R3", "value": 46.8, "unit": "%"}, {"measurement": "% inhibition female (individual replicates) R4", "setting": "[1]; 2µM, replicate R4", "value": 81.6, "unit": "%"}, {"measurement": "Selectivity ratio F", "setting": "[1]", "value": 1.19}, {"measurement": "IC50", "setting": "[1]", "value": 1370, "unit": "nM"}, {"measurement": "Average inhibition male (%)", "setting": "[2]; 2µM, average of replicates", "value": 99.4, "unit": "%"}, {"measurement": "% inhibition male (individual replicates) R1", "setting": "[2]; 2µM, replicate R1", "value": 96.0, "unit": "%"}, {"measurement": "% inhibition male (individual replicates) R3", "setting": "[2]; 2µM, replicate R3", "value": 99.2, "unit": "%"}, {"measurement": "% inhibition male (individual replicates) R4", "setting": "[2]; 2µM, replicate R4", "value": 102.2, "unit": "%"}, {"measurement": "Selectivity Ratio M", "setting": "[2]", "value": 2.45}, {"measurement": "IC50", "setting": "[2]", "value": 660, "unit": "nM"}, {"measurement": "Tox50", "setting": "HepG2 cells", "value": 1.62, "unit": "µM"}]}
{"smiles": "CN(CCCCN)Cc1ccc(-c2ccc(Cl)cc2)cc1", "note": "[TCMDC-140123]", "values": [{"measurement": "Selectivity ratio F", "setting": "[1]", "value": 1.81}, {"measurement": "Average inhibition female (%)", "setting": "[1]; [3]", "value": 20.6, "unit": "%"}, {"measurement": "% inhibition female (individual replicates) R1", "setting": "[1]; PfDGFA at 2µM, replicate R1", "value": 26.7, "unit": "%"}, {"measurement": "% inhibition female (individual replicates) R3", "setting": "[1]; PfDGFA at 2µM, replicate R3", "value": 14.8, "unit": "%"}, {"measurement": "% inhibition female (individual replicates) R4", "setting": "[1]; PfDGFA at 2µM, replicate R4", "value": 10.1, "unit": "%"}, {"measurement": "IC50", "setting": "[1]", "value": 3700, "unit": "nM"}, {"measurement": "HitlevelF", "setting": "[1]; 2µM", "value": 0}, {"measurement": "Selectivity Ratio M", "setting": "[2]", "value": 4.36}, {"measurement": "Average inhibition male (%)", "setting": "[2]; [3]", "value": 72.2, "unit": "%"}, {"measurement": "% inhibition male (individual replicates) R1", "setting": "[2]; PfDGFA at 2µM, replicate R1", "value": 73.4, "unit": "%"}, {"measurement": "% inhibition male (individual replicates) R3", "setting": "[2]; PfDGFA at 2µM, replicate R3", "value": 55.2, "unit": "%"}, {"measurement": "% inhibition male (individual replicates) R4", "setting": "[2]; PfDGFA at 2µM, replicate R4", "value": 83.6, "unit": "%"}, {"measurement": "IC50", "setting": "[2]", "value": 1530, "unit": "nM"}, {"measurement": "HitlevelM", "setting": "[2]; 2µM", "value": 4}, {"measurement": "Tox50", "setting": "HepG2 cells", "value": 6.69, "unit": "µM"}]}
{"smiles": "COc1cc(-c2nc(C(C)(C)CN)[nH]c2-c2ccncc2)ccc1Br.Cl", "note": "[TCMDC-140674]", "values": [{"measurement": "Selectivity ratio F", "setting": "[1]", "value": 27.17}, {"measurement": "inhibition at 2 µM", "setting": "[1]; Plasmodium falciparum, PfDGFA at 2µM, average of replicates, read-out: Average inhibition female (%)", "value": 51.9, "unit": "%"}, {"measurement": "inhibition at 2 µM", "setting": "[1]; Plasmodium falciparum, PfDGFA at 2µM, replicate R1, read-out: % inhibition female (individual replicates) R1", "value": 32.2, "unit": "%"}, {"measurement": "inhibition at 2 µM", "setting": "[1]; Plasmodium falciparum, PfDGFA at 2µM, replicate R2, read-out: % inhibition female (individual replicates) R2", "value": 85.8, "unit": "%"}, {"measurement": "inhibition at 2 µM", "setting": "[1]; Plasmodium falciparum, PfDGFA at 2µM, replicate R3, read-out: % inhibition female (individual replicates) R3", "value": 16.6, "unit": "%"}, {"measurement": "inhibition at 2 µM", "setting": "[1]; Plasmodium falciparum, PfDGFA at 2µM, replicate R4, read-out: % inhibition female (individual replicates) R4", "value": 72.9, "unit": "%"}, {"measurement": "IC50", "setting": "[1]; Plasmodium falciparum", "value": 1610, "unit": "nM"}, {"measurement": "HitlevelF", "setting": "[1]; 2µM", "value": 2}, {"measurement": "Selectivity Ratio M", "setting": "[2]", "value": 24.67}, {"measurement": "inhibition at 2 µM", "setting": "[2]; Plasmodium falciparum, PfDGFA at 2µM, average of replicates, read-out: Average inhibition male (%)", "value": 80.4, "unit": "%"}, {"measurement": "inhibition at 2 µM", "setting": "[2]; Plasmodium falciparum, PfDGFA at 2µM, replicate R1, read-out: % inhibition male (individual replicates) R1", "value": 38.8, "unit": "%"}, {"measurement": "inhibition at 2 µM", "setting": "[2]; Plasmodium falciparum, PfDGFA at 2µM, replicate R2, read-out: % inhibition male (individual replicates) R2", "value": 100, "unit": "%"}, {"measurement": "inhibition at 2 µM", "setting": "[2]; Plasmodium falciparum, PfDGFA at 2µM, replicate R3, read-out: % inhibition male (individual replicates) R3", "value": 83.7, "unit": "%"}, {"measurement": "inhibition at 2 µM", "setting": "[2]; Plasmodium falciparum, PfDGFA at 2µM, replicate R4, read-out: % inhibition male (individual replicates) R4", "value": 98.9, "unit": "%"}, {"measurement": "IC50", "setting": "[2]; Plasmodium falciparum", "value": 1770, "unit": "nM"}, {"measurement": "HitlevelM", "setting": "[2]; 2µM", "value": 3}, {"measurement": "Tox50", "setting": "HepG2 cells", "value": 43.66, "unit": "µM"}]}
{"smiles": "N=C(N)Nc1nc(-c2ccc(NCc3ccc(CNc4cccc(-c5csc(NC(=N)N)n5)c4)cc3)cc2)cs1", "note": "[TCMDC-140699]", "values": [{"measurement": "Average inhibition female (%)", "setting": "[1]; 2µM, average of replicates", "value": 56.1, "unit": "%"}, {"measurement": "% inhibition female (individual replicates) R1", "setting": "[1]; 2µM, replicate R1", "value": 34.4, "unit": "%"}, {"measurement": "% inhibition female (individual replicates) R3", "setting": "[1]; 2µM, replicate R3", "value": 32.5, "unit": "%"}, {"measurement": "% inhibition female (individual replicates) R4", "setting": "[1]; 2µM, replicate R4", "value": 82.5, "unit": "%"}, {"measurement": "Selectivity ratio F", "setting": "[1]", "value": 2.7}, {"measurement": "IC50", "setting": "[1]", "value": 2170, "unit": "nM"}, {"measurement": "Average inhibition male (%)", "setting": "[2]; 2µM, average of replicates", "value": 99.5, "unit": "%"}, {"measurement": "% inhibition male (individual replicates) R1", "setting": "[2]; 2µM, replicate R1", "value": 99.4, "unit": "%"}, {"measurement": "% inhibition male (individual replicates) R3", "setting": "[2]; 2µM, replicate R3", "value": 98.0, "unit": "%"}, {"measurement": "% inhibition male (individual replicates) R4", "setting": "[2]; 2µM, replicate R4", "value": 98.9, "unit": "%"}, {"measurement": "Selectivity Ratio M", "setting": "[2]", "value": 7.68}, {"measurement": "IC50", "setting": "[2]", "value": 760, "unit": "nM"}, {"measurement": "Tox50", "setting": "HepG2 cells", "value": 5.85, "unit": "µM"}]}
